Each compound was assayed against T1, Full-length, GST-tagged, human CaMKIIδ (Homo sapiens, UniProt Q13557) (assay: CaMKIIδ binding assay (TR-FRET with BODIPY-labeled probe ligand)). Conditions: CaMKIIδ binding assay, results of Table 2.
T1 construct: Full-Length, Glutathione-S-Transferase(GST)-Tagged, Human CaMKIIδ was purchased from Carna Biosciences; purchased Carna Biosciences 02-111
Summary of the method: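 Compounds were tested as 4-fold, eight-point series for 1 hr at room temperature, and IC50 was obtained by logistic fitting against a 3 μM parent-compound control. Signal came from displacement of a 300 nM BODIPY ligand from 0.5 nM GST-CaMKIIδ, detected via Tb-anti-GST in calmodulin/Ca2+ (pH 7.6).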

T1 sequence (Q13557 1-478 isoform Q13557-12): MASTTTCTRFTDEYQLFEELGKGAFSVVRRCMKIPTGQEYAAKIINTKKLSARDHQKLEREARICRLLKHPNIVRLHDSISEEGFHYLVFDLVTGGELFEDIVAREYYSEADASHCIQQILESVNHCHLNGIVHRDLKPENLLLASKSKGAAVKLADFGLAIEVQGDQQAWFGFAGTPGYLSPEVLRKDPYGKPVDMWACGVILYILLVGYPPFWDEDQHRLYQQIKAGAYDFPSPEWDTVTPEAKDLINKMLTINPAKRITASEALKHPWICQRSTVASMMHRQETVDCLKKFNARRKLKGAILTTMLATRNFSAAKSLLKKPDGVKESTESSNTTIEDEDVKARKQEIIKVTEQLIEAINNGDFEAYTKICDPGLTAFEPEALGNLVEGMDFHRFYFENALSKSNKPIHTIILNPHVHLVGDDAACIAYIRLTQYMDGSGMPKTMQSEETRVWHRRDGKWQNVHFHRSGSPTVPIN

Row | Compound | IC50
1 | COc1ccc(N2CCC(N3CCOCC3)CC2)cc1Nc1ncc(-c2ccc(C#N)c(O[C@@H](C)COC(F)F)c2)cn1 [Example 495, (S)-2-((1-(difluoromethoxy)propan-2-yl)oxy)-4-(2-((2-methoxy-5-(4-morpholinopiperidin-1-yl)phenyl)amino)pyrimidin-5-yl)benzonitrile] | 10 to 100 nM
2 | COc1cc2cc[nH]c2cc1Nc1ncc(-c2ccc(Cl)c(O[C@@H](C)Cn3cnnn3)c2)cn1 [Example 496, (S)-N-(5-(3-((1-(1H-tetrazol-1-yl)propan-2-yl)oxy)-4-chlorophenyl)pyrimidin-2-yl)-5-methoxy-1H-indol-6-amine] | 10 to 100 nM
3 | COc1cc2c(cc1Nc1ncc(-c3ccc(Cl)c(O[C@@H](C)Cn4cnnn4)c3)cn1)N(C(=O)CN(C)C)CC2 [Example 497, (S)-1-(6-((5-(3-((1-(1H-tetrazol-1-yl)propan-2-yl)oxy)-4-chlorophenyl)pyrimidin-2-yl)amino)-5-methoxyindolin-1-yl)-2-(dimethylamino)ethan-1-one] | < 10 nM
4 | COc1cc2c(cc1Nc1ncc(-c3ccc(Cl)c(O[C@@H](C)Cn4cnnn4)c3)cn1)N(C(=O)CN1CCOCC1)CC2 [Example 498, (S)-1-(6-((5-(3-((1-(1H-tetrazol-1-yl)propan-2-yl)oxy)-4-chlorophenyl)pyrimidin-2-yl)amino)-5-methoxyindolin-1-yl)-2-morpholinoethan-1-one] | ≥ 100 nM
5 | COc1cc2c(cc1Nc1ncc(-c3ccc(Cl)c(O[C@@H](C)Cn4cnnn4)c3)cn1)CN(CC1COC1)CC2 [Example 499, (S)-N-(5-(3-((1-(1H-tetrazol-1-yl)propan-2-yl)oxy)-4-chlorophenyl)pyrimidin-2-yl)-6-methoxy-2-(oxetan-3-ylmethyl)-1,2,3,4-tetrahydroisoquinolin-7-amine] | < 10 nM
6 | COCC(=O)N1CCc2cc(OC)c(Nc3ncc(-c4ccc(Cl)c(O[C@@H](C)Cn5cnnn5)c4)cn3)cc2C1 [Example 500, (S)-1-(7-((5-(3-((1-(1H-tetrazol-1-yl)propan-2-yl)oxy)-4-chlorophenyl)pyrimidin-2-yl)amino)-6-methoxy-3,4-dihydroisoquinolin-2(1H)-yl)-2-methoxyethan-1-one] | 10 to 100 nM
7 | COc1cc2c(cc1Nc1ncc(-c3ccc(Cl)c(O[C@@H](C)Cn4cnnn4)c3)cn1)CN(C(=O)CN1CCOCC1)CC2 [Example 501, (S)-1-(7-((5-(3-((1-(1H-tetrazol-1-yl)propan-2-yl)oxy)-4-chlorophenyl)pyrimidin-2-yl)amino)-6-methoxy-3,4-dihydroisoquinolin-2(1H)-yl)-2-morpholinoethan-1-one] | 10 to 100 nM
8 | COc1cc2c(cc1Nc1ncc(-c3ccc(Cl)c(O[C@@H](C)Cn4cnnn4)c3)cn1)CN(C1CCOCC1)CC2 [Example 502, (S)-N-(5-(3-((1-(1H-tetrazol-1-yl)propan-2-yl)oxy)-4-chlorophenyl)pyrimidin-2-yl)-6-methoxy-2-(tetrahydro-2H-pyran-4-yl)-1,2,3,4-tetrahydroisoquinolin-7-amine] | < 10 nM
9 | COc1cc2c(cc1Nc1ncc(-c3ccc(Cl)c(O[C@@H](C)Cn4cnnn4)c3)cn1)N(CC1COC1)CC2 [Example 503, (S)-N-(5-(3-((1-(1H-tetrazol-1-yl)propan-2-yl)oxy)-4-chlorophenyl)pyrimidin-2-yl)-5-methoxy-1-(oxetan-3-ylmethyl)indolin-6-amine] | 10 to 100 nM
10 | COc1cc2c(cc1Nc1ncc(-c3ccc(Cl)c(O[C@@H](C)Cn4cnnn4)c3)cn1)CN(c1ccnc(C)n1)CC2 [Example 504, (S)-N-(5-(3-((1-(1H-tetrazol-1-yl)propan-2-yl)oxy)-4-chlorophenyl)pyrimidin-2-yl)-6-methoxy-2-(2-methylpyrimidin-4-yl)-1,2,3,4-tetrahydroisoquinolin-7-amine] | 10 to 100 nM
11 | COc1cc2c(cc1Nc1ncc(-c3ccc(Cl)c(O[C@@H](C)Cn4cnnn4)c3)cn1)CCN(c1ccnc(C)n1)C2 [Example 505, (S)-N-(5-(3-((1-(1H-tetrazol-1-yl)propan-2-yl)oxy)-4-chlorophenyl)pyrimidin-2-yl)-7-methoxy-2-(2-methylpyrimidin-4-yl)-1,2,3,4-tetrahydroisoquinolin-6-amine] | 10 to 100 nM
12 | COc1cc2c(cc1Nc1ncc(-c3ccc(Cl)c(O[C@@H](C)Cn4cnnn4)c3)cn1)CCN(CC(=O)O)C2 [Example 506, (S)-2-(6-((5-(3-((1-(1H-tetrazol-1-yl)propan-2-yl)oxy)-4-chlorophenyl)pyrimidin-2-yl)amino)-7-methoxy-3,4-dihydroisoquinolin-2(1H)-yl)acetic acid] | < 10 nM
13 | C[C@@H](Cn1cnnn1)Oc1cc(-c2cnc(Nc3cc4c(cc3Cl)CCNCC4)nc2)ccc1Cl [Example 507, (S)-N-(5-(3-((1-(1H-tetrazol-1-yl)propan-2-yl)oxy)-4-chlorophenyl)pyrimidin-2-yl)-8-chloro-2,3,4,5-tetrahydro-1H-benzo[d]azepin-7-amine] | < 10 nM
14 | COc1cnc(C2CCC(F)(F)CC2)cc1Nc1ncc(-c2ccc(Cl)c(O[C@@H](C)Cn3cnnn3)c2)cn1 [Example 508, (S)-5-(3-((1-(1H-tetrazol-1-yl)propan-2-yl)oxy)-4-chlorophenyl)-N-(2-(4,4-difluorocyclohexyl)-5-methoxypyridin-4-yl)pyrimidin-2-amine] | ≥ 100 nM
15 | Cc1cnc(N2CCC(N3CCOCC3)CC2)cc1Nc1ncc(-c2ccc(C#N)c(O[C@@H](C)Cn3cnnn3)c2)cn1 [Example 509, (S)-2-((1-(1H-tetrazol-1-yl)propan-2-yl)oxy)-4-(2-((5-methyl-2-(4-morpholinopiperidin-1-yl)pyridin-4-yl)amino)pyrimidin-5-yl)benzonitrile] | 10 to 100 nM
16 | COc1cc2c(cc1Nc1ncc(-c3ccc(Cl)c(O[C@@H](C)Cn4cnnn4)c3)cn1)CN(CC(C)=O)CC2 [Example 510, (S)-1-(7-((5-(3-((1-(1H-tetrazol-1-yl)propan-2-yl)oxy)-4-chlorophenyl)pyrimidin-2-yl)amino)-6-methoxy-3,4-dihydroisoquinolin-2(1H)-yl)propan-2-one] | < 10 nM
17 | COc1cc2c(cc1Nc1ncc(-c3ccc(Cl)c(O[C@@H](C)Cn4cnnn4)c3)cn1)CN(CCO)CC2 [Example 511, (S)-2-(7-((5-(3-((1-(1H-tetrazol-1-yl)propan-2-yl)oxy)-4-chlorophenyl)pyrimidin-2-yl)amino)-6-methoxy-3,4-dihydroisoquinolin-2(1H)-yl)ethan-1-ol] | < 10 nM
18 | COc1cc2c(cc1Nc1ncc(-c3ccc(Cl)c(O[C@@H](C)Cn4cnnn4)c3)cn1)C(=O)N(CCN(C)C)C2 [Example 512, (S)-6-((5-(3-((1-(1H-tetrazol-1-yl)propan-2-yl)oxy)-4-chlorophenyl)pyrimidin-2-yl)amino)-2-(2-(dimethylamino)ethyl)-5-methoxyisoindolin-1-one] | 10 to 100 nM
19 | C[C@@H](Cn1cnnn1)Oc1cc(-c2cnc(Nc3cc4c(cc3Cl)CCN(C3COC3)CC4)nc2)ccc1Cl [Example 513, (S)-N-(5-(3-((1-(1H-tetrazol-1-yl)propan-2-yl)oxy)-4-chlorophenyl)pyrimidin-2-yl)-8-chloro-3-(oxetan-3-yl)-2,3,4,5-tetrahydro-1H-benzo[d]azepin-7-amine] | < 10 nM
